From patent US10280158B2, “Immune adjustment compound, use thereof and pharmaceutical composition comprising same” (SUZHOU CONNECT BIOPHARMACEUTICALS, LTD., priority 2013, dated 2019)

Key:
[1] = In vivo pharmacokinetic experiment, oral administration; design: species or system Sprague Dawley rats; conditions: for half-life / AUC(0-inf) / Cmax / Tmax: male, Sprague-Dawley, rat, plasma; for half-life: po, 3 mg/kg; for elimination speed after the highest concentration, compared with compounds 1 and 5: oral administration, FIGS. 1A and 1B
Protocol: (§1) In this Example, the pharmacokinetic properties of compounds 1, 2, 3, 4 and 5 were evaluated via. i.v. and p.o. dosing to Sprague Dawley rats.
(§2) Experimental animals used in this Example and hereinafter were male SD rats of 7-9 weeks old, with body weight ranging from 186 to 231 g, which were purchased from Beijing Vital River Laboratory Animal Technology Co., Ltd. The animals were quarantined by veterinarian for 5 days after purchase, then animals had passed quarantine inspection were selected to be tested under SPE conditions, wherein the tested animals are assigned into 3 rats per group as follows.
Oral administration group: 2.74 mg of each of compounds 1-5 was respectively prepared into a solution of 0.3 mg/mL by using 9.113 mL 0.5% CMC-Na as a diluent. Each solution was vortexed 1-2 mins after mixed fully, and then was ultrasonically treated for 20-30 mins until a uniform suspension was obtained. The uniform suspension was used as medicine administrated to oral administration group, and the administration was conducted with a dose of 10 mL/kg body weight of each rat.
(§3) For both oral administration group and intravenous administration group, blood samples were collected at 0.0833 h (5 min), 0.25 h (15 min), 0.5 h, 1 h, 2 h, 4 h, 8 h, and 24 h after administration. After isoflurane anesthesia 0.3 mL whole blood was collected from orbital venous plexus of the animals at each time point. The animals would be euthanized after all samples were collected.
(§4) The collected blood samples were placed in EP tubes containing heparin sodium (about 10 μl, 1000 IU/mL), which were then placed in trash ice immediately, and centrifuged at 4,000 rpm and a low temperature (4° C.) for 5 minutes. The plasma was isolated rapidly and then stored at −20° C. until analysis.
(§5) The concentration of each compound in blood was measured by LC-MS/MS-001 (Q-trap-3200) with osalmide as internal standard material, as follows. 24 μL blank plasma was added into 6 μL plasma sample (5 times of dilution), and then a solution of acetonitrile containing 150 μL internal standard material (osalmide in 100 μg/mL) was added in. The mixture was shaken for 5 minutes, and then centrifuged at 4,000 rpm for 5 minutes. 2 μL of the obtained sample was implanted into LC-MS/MS for analysis. As for undiluted plasma sample, 30 μL of it was added into a solution of acetonitrile containing 150 μL internal standard material (osalmide in 100 μg/mL). The mixture was shaken for 5 minutes, and then centrifuged at 4,000 rpm for 5 minutes. 2 μL of the obtained sample was implanted into LC-MS/MS for analysis.
(§6) As for data analysis, WinNolin (V6.2) non-compartment model (NCA) was used for calculating main metabolic pharmacokinetic parameters including t1/2, AUC(0−t), AUCinf, V, Cl, MRT, etc., and Microsoft Office EXCEL was used for calculating mean values, standard deviations and coefficients of variation.

[2] = In vivo pharmacokinetic experiment, intravenous administration; design: species or system Sprague Dawley rats; conditions: for AUC(0-inf) / MRT inf / clearance / half-life / Vd: male, Sprague-Dawley, rat, plasma, intravenous administration (1 mg/kg), SD rats; for half-life: read-out: T½ (converted); for Vd: read-out: Vss; for mean residence time (MRT) compared with compound 1 / terminal half-life compared with compound 1: intravenous administration, rats, in words
Protocol: as §1, §2
Intravenous administration group: 1.61 mg of each of compounds 1-5 was respectively prepared into a solution of 1 mg/mL by using 1.610 mL 10% HP-β-CD as a diluent. Each solution was vortexed 1-2 mins after mixed fully, and then was ultrasonically treated for 28-30 mins. The obtained solution was used as medicine administrated to intravenous administration group, and the administration was conducted with a dose of 1 mL/kg body weight of each rat.
as §3, §4, §5, §6

human S1P3 = human S1P3 (Homo sapiens, UniProt Q99500); experiment: Internalization effect experiment of S1P3 (CHO-S cells); format: cell-based; conditions: for internalization activation effect on S1P3 subtype: CHO-S cells expressing human S1P3, in words; for EC50: CHO-S cells expressing human S1P3, read-out: Receptor Internalization (EC50) S1P3
Protocol: CHO—S cells bearing human S1P1 with Myc tag were harvested and then adjusted to a density of one million cells per mL by Dulbecco's modified Eagle's medium (DMEM). […] After incubation, the mixture was centrifuged at 800 RPM for 5 minutes to obtain the cells. The cells were resuspended in FACS buffer (PBS containing 1% BSA), and Myc antibody labelled with fluorescein isothiocyanate (FITC) (from Californian Miltenyi Biotec GmbH, USA) was added in and incubated for 1 hour on ice. The cells were washed, resuspended in pre-cooled FACS buffer and analysed by FACS Calibur flow cytometry.
CHO—S cells expressing human S1P3 were used to perform internalization detection test. Besides cells, experimental method was the same with the method of the internalized detection experiment of S1P1.

human S1P1 = molecular target: T1, human S1P1 (Homo sapiens, UniProt P21453); experiment: Internalization effect experiment on S1P1 (CHO-S cells, Myc tag, flow cytometry); format: cell-based; conditions: for EC50: CHO-S cells expressing human S1P1, 1 hour at 37° C., read-out: Receptor Internalization (EC50) S1P1; for activity of inducing S1P1 internalization: CHO-S cells expressing human S1P1, in words
T1 construct: expressed in transfected cells; host or cells: CHO-S cells
Source text: It is well known that S1P1 small molecule agonists can prevent lymphocytes from entering the peripheral circulation by inducing internalization of S1P1 on cell surface. In order to determine whether the compounds provided by present invention have an activity of inducing S1P1 internalization, CHO—S cells expressing human S1P1, to replace the lymphocytes, are used as detection system of S1P1 internalization. For ease of monitoring the S1P1 on cell surface, a Myc tag is fused to N-terminal of S1P1, thus the expression of S1P1 is analyzed by flow cytometry after incubating the cells with fluorescent-labeled antibody against the Myc tag.
A 10 mM stock solution was prepared by dissolving compound 2 provided by the present invention in dimethyl sulfoxide (DMSO), and then the stock solution was diluted to different concentrations as desired with DMEM. CHO—S cells bearing human S1P1 with Myc tag were harvested and then adjusted to a density of one million cells per mL by Dulbecco's modified Eagle's medium (DMEM). Different concentrations of Compound 2 diluted in an equal volume were mixed and the cell suspension and then incubated at 37° C. for 1 hour. After incubation, the mixture was centrifuged at 800 RPM for 5 minutes to obtain the cells. The cells were resuspended in FACS buffer (PBS containing 1% BSA), and Myc antibody labelled with fluorescein isothiocyanate (FITC) (from Californian Miltenyi Biotec GmbH, USA) was added in and incubated for 1 hour on ice. The cells were washed, resuspended in pre-cooled FACS buffer and analysed by FACS Calibur flow cytometry.

[3] = oral administration (3 mg/kg), SD rats, read-out: T½ (converted)
[4] = oral administration (3 mg/kg), SD rats
[5] = after oral administration, rats
[6] = after oral administration, rats, read-out: terminal half-life (converted)

human S1P3, sequence (Q99500 whole entry): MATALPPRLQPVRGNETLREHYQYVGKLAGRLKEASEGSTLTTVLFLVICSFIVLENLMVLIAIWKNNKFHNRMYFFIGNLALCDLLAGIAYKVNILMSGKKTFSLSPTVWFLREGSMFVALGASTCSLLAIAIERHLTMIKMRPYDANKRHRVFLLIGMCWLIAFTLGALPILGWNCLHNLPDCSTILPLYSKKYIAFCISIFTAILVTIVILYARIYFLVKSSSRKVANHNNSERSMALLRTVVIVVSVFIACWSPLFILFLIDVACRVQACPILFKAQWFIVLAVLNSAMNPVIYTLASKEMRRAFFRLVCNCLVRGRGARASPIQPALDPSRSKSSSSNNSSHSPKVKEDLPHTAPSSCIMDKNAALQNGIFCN
T1 sequence (P21453 whole entry): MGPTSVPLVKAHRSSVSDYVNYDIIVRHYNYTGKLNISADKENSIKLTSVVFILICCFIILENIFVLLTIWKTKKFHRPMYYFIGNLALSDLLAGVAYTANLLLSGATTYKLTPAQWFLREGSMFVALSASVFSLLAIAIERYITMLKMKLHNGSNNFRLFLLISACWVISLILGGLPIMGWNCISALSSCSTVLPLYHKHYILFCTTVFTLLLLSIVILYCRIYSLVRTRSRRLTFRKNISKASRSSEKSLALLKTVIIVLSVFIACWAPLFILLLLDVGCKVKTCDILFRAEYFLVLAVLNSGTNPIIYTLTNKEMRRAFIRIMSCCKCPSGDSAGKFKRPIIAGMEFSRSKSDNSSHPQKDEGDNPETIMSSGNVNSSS

Cc1cc(-c2noc(-c3ccc(CC(C)C)cc3)n2)ccc1CN1CC(C(=O)O)C1 [Compound 5, 1-{2-methyl-4-[5-(4-isobutylphenyl)-1,2,4-oxadiazol-3-yl]-benzyl}-3-azetidine carboxylic acid]
half-life [1, 3]: 12.3 ± 2.09 h | AUC(0-inf) [1, 4]: 5460 ± 401 ng·h/mL | Cmax [1, 4]: 249 ± 8.74 ng/mL | Tmax [1, 4]: 3.33 h | F [1, 4]: 74.0% | half-life compared with compound 1 ([1]; oral and intravenous (Tables 1 and 2), rats, in words): extended rather than shortened | AUC(0-inf) [2]: 2200 ± 89.5 ng·h/mL | MRT inf [2]: 12.9 ± 1.24 h | clearance [2]: 7.57 mL/min/kg | half-life [2]: 10.1 ± 1.02 h | Vd [2]: 5.87 ± 0.802 L/kg

CC(C)Cc1ccc(-c2nc(-c3ccc(CN4CC(C(=O)O)C4)c(Br)c3)no2)cc1 [Compound 4, 1-{2-bromo-4-[5-(4-isobutylphenyl)-1,2,4-oxadiazol-3-yl]-benzyl}-3-azetidine carboxylic acid]
half-life shortening relative to compound 1 [1, 5]: ~50% | half-life [1, 6]: < 5.5 h | half-life [1, 3]: 5.37 ± 0.15 h | AUC(0-inf) [1, 4]: 4420 ± 449 ng·h/mL | Cmax [1, 4]: 346 ± 29.6 ng/mL | Tmax [1, 4]: 1.15 h | F [1, 4]: 52.9% | elimination speed after the highest concentration, compared with compounds 1 and 5 ([1]; rats, in words): accelerated obviously | internalization activation effect on S1P3 subtype (human S1P3): no internalization activation effect on S1P3 subtype | EC50 (human S1P3): > 1000 nM | mean residence time (MRT) compared with compound 1 [2]: reduced significantly | terminal half-life compared with compound 1 [2]: reduced significantly | AUC(0-inf) [2]: 2770 ± 200 ng·h/mL | MRT inf [2]: 5.23 ± 0.36 h | clearance [2]: 6.03 mL/min/kg | half-life [2]: 5.29 ± 0.6 h | Vd [2]: 2.75 ± 0.112 L/kg | EC50 (human S1P1): 4.2 nM | activity of inducing S1P1 internalization (human S1P1): no significant difference with that of compound 1

CC(C)Cc1ccc(-c2nc(-c3ccc(CN4CC(C(=O)O)C4)cc3)no2)cc1 [Compound 1, 1-{4-[5-(4-isobutylphenyl)-1,2,4-oxadiazol-3-yl]-benzyl}-3-azetidine carboxylic acid, reference compound]
half-life [1, 6]: ~11 h | half-life [1, 3]: 10.6 ± 1.07 h | AUC(0-inf) [1, 4]: 6200 ± 147 ng·h/mL | Cmax [1, 4]: 365 ± 51.5 ng/mL | Tmax [1, 4]: 2 h | F [1, 4]: 82.5% | EC50 (human S1P3): > 1000 nM | AUC(0-inf) [2]: 2380 ± 329 ng·h/mL | MRT inf [2]: 11 ± 1.2 h | clearance [2]: 7.12 mL/min/kg | half-life [2]: 8.69 ± 0.8 h | Vd [2]: 4.65 ± 0.389 L/kg | EC50 (human S1P1): 5.69 nM

CC(C)Cc1ccc(-c2nc(-c3ccc(CN4CC(C(=O)O)C4)c(Cl)c3)no2)cc1 [Compound 3, 1-{2-chloro-4-[5-(4-isobutylphenyl)-1,2,4-oxadiazol-3-yl]-benzyl}-3-azetidine carboxylic acid]
half-life shortening relative to compound 1 [1, 5]: ~50% | half-life [1, 6]: < 5.5 h | half-life [1, 3]: 5.3 ± 0.51 h | AUC(0-inf) [1, 4]: 8110 ± 469 ng·h/mL | Cmax [1, 4]: 681 ± 61.1 ng/mL | Tmax [1, 4]: 3.33 h | F [1, 4]: 96.1% | elimination speed after the highest concentration, compared with compounds 1 and 5 ([1]; rats, in words): accelerated obviously | internalization activation effect on S1P3 subtype (human S1P3): no internalization activation effect on S1P3 subtype | EC50 (human S1P3): > 1000 nM | mean residence time (MRT) compared with compound 1 [2]: reduced significantly | terminal half-life compared with compound 1 [2]: reduced significantly | AUC(0-inf) [2]: 2770 ± 410 ng·h/mL | MRT inf [2]: 5.11 ± 0.39 h | clearance [2]: 6.1 mL/min/kg | half-life [2]: 5.04 ± 0.37 h | Vd [2]: 2.65 ± 0.229 L/kg | EC50 (human S1P1): 3.21 nM | activity of inducing S1P1 internalization (human S1P1): no significant difference with that of compound 1
